In patent US9045555B2, “Vaccine against amyloid folding intermediate” (priority 2008, dated 2015):

Legend:
oligomeric Aβ 1-42 = test: ELISA of sera of immunized mice, coating oligomeric Aβ 1-42 (cross-reactivity); assay type: in vivo, Balb/c mice; conditions: in vitro ELISA
[1] = ELISA of sera of immunized mice, coating homologous peptide-BSA conjugates (anti-peptide titre); assay type: in vivo, Balb/c mice
fibrillar Aβ 1-42 = test: ELISA of sera of immunized mice, coating fibrillar Aβ 1-42 (cross-reactivity); assay type: in vivo, Balb/c mice; conditions: in vitro ELISA
[2] = system: Aβ deposits in post-mortem AD human brain tissue (hippocampus); test: Immunohistochemical staining of human AD brain sections with sera of immunized mice; conditions: mouse serum 1:300, hippocampus cryosections, Braak 5 or 6; positive control 6E10
Excerpt: FIG. 6: Immunohistochemical staining of human brain section donor 99-30 (Braak 6) with a mouse serum (1:300) immunized with cyclo[Aβ(22-28)-YNGK]/tetanus toxoid conjugate (a) and the control monoclonal 6E10 (1:15.000) in (b). […] (Microscope: Leica DMRE fitted with a DC300 camera)
Human brain sections of the hippocampus of several donors with Alzheimer disease (Braak 5 or 6) were used (Netherlands Brain Bank). Cryosections (10 μm) were cut from unfixed directly frozen tissue, thaw-mounted, dried for 1 hour and stored in a sealed box at −20 C. For immunostaining, sections were fixed in 4% PFA-PBS solution for 10 min, washed in 0.05 M phosphate buffer (PB) for 10 min with 2 exchanges and blocked with 10% normal donkey serum (NDS)+0.4% TritonX100 in 0.05M PB for 1 hour at RT. The blocking solution was discarded and diluted mouse sera (1:300; first antibody) in 3% NDS+0.4% TritonX100 in 0.05 M PB was added and incubated 0/N at RT in a box with wet tissues. Sections were washed with 0.05M PB; at least 30 min with one or more exchanges. Then sections were incubated with Donkey-anti-Mouse˜Cy3 1:1400 in 0.05 M PB for 2 hours. Sections were washed with 0.05M PB; at least 30 min with one or more exchanges. Sections were sealed in Vectashield with Dapi (Vector). Mouse Monoclonal 6E10 to beta amyloid 1-17 (Abcam, Cambridge, UK) was used as positive control (1:15,000).

[3] = system: conformational epitope of Aβ 1-42; test: Antibody response in mice recognizing a conformational epitope of Aβ 1-42; assay type: in vivo; conditions: epitope as expressed in monomer, soluble oligomer, fibrils or neurodegenerative plaques

Substance | cross-reaction of elicited antibodies with Aβ (1-42)-oligomers (oligomeric Aβ 1-42) | antipeptide antibody titers / antibody response to the immunizing peptide [1] | cross-reaction of elicited antibodies with Aβ (1-42)-fibrils (fibrillar Aβ 1-42) | recognition of Aβ deposits / plaques in AD human brain tissue by elicited antibodies [2] | induction of an antibody response in mice specifically recognizing a conformational epitope of Aβ 1-42 [3]
Ac-K*EDVGSNKYNG-NH2 (Ac-K(tetanus toxoid)EDVGSNKYNG-NH2) [group 3, tetanus toxoid conjugate of the linear N-acetylated peptide amide] | did not recognize | good | did not recognize |  | 
cyclo[EDVGSNKYNGK*] (cyclo(EDVGSNKYNGK(tetanus toxoid))) [group 9, tetanus toxoid conjugate of the cyclic peptide [Aβ(22-28)-YNGK*]] | cross-react |  | cross-react | recognize | able to induce an antibody response
